Assay results: PubChem BioAssay (NCI)
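48-hour exposure; five concentrations; linearly interpolated endpoints. GI50 = concentration required for 50% inhibition of growth. TGI: total growth inhibition.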

Columns and labels:
Assay in all cases: growth of human tumour cells (NCI), 48 h
[1] = tested on: 786-0 renal
[2] = tested on: A498 renal
[3] = tested on: A549 NSCLC
[4] = tested on: ACHN renal
[5] = tested on: BT-549 breast
[6] = tested on: CAKI-1 renal
[7] = tested on: CCRF-CEM leukemia
[8] = tested on: COLO 205 colon
[9] = tested on: DU-145 prostate
[10] = tested on: EKVX NSCLC
[11] = tested on: HCC-2998 colon
[12] = tested on: HCT-116 colon
[13] = tested on: HCT-15 colon
[14] = tested on: HL-60(TB) leukemia
[15] = tested on: HOP-62 NSCLC
[16] = tested on: HOP-92 NSCLC
[17] = tested on: HS 578T breast
[18] = tested on: HT29 colon
[19] = tested on: IGROV1 ovarian
[20] = tested on: K-562 leukemia
[21] = tested on: KM12 colon
[22] = tested on: LOX IMVI melanoma
[23] = tested on: M14 melanoma
[24] = tested on: MALME-3M melanoma
[25] = tested on: MCF7 breast
[26] = tested on: MDA-MB-231 breast
[27] = tested on: MDA-MB-435
[28] = tested on: MOLT-4 leukemia
[29] = tested on: NCI-H226 lung
[30] = tested on: NCI-H23 lung
[31] = tested on: NCI-H460 lung
[32] = tested on: NCI-H522 lung
[33] = tested on: NCI/ADR-RES ovarian
[34] = tested on: OVCAR-3 ovarian
[35] = tested on: OVCAR-4 ovarian
[36] = tested on: OVCAR-5 ovarian
[37] = tested on: OVCAR-8 ovarian
[38] = tested on: PC-3 prostate
[39] = tested on: RPMI-8226 leukemia
[40] = tested on: RXF 393 renal
[41] = tested on: SF-268 CNS
[42] = tested on: SF-295 CNS
[43] = tested on: SF-539 CNS
[44] = tested on: SK-MEL-2 melanoma
[45] = tested on: SK-MEL-28 melanoma
[46] = tested on: SK-MEL-5 melanoma
[47] = tested on: SK-OV-3 ovarian
[48] = tested on: SN12C renal
[49] = tested on: SNB-19 CNS
[50] = tested on: SNB-75 CNS
[51] = tested on: SR leukemia
[52] = tested on: SW-620 colon
[53] = tested on: T-47D breast
[54] = tested on: TK-10 renal
[55] = tested on: U251 CNS
[56] = tested on: UACC-257 melanoma
[57] = tested on: UACC-62 melanoma
[58] = tested on: UO-31 renal

## Cn1ccnc1C(=O)/C=C/c1ccc(C(=O)Nc2ccccc2F)cc1
[1]
  GI50: 1690 nM
  TGI: 3320 nM
[2]
  GI50: 2410 nM
  TGI: 8.21 µM
[3]
  GI50: 3010 nM
  TGI: 13.2 µM
[4]
  GI50: 2010 nM
  TGI: 4150 nM
[5]
  GI50: 1770 nM
  TGI: 4210 nM
[6]
  GI50: 1040 nM
  TGI: 4330 nM
[7]
  GI50: 1180 nM
  TGI: 7.54 µM
[8]
  GI50: 2740 nM
  TGI: 6.67 µM
[9]
  GI50: 1640 nM
  TGI: 3320 nM
[10]
  GI50: 2900 nM
  TGI: 11.5 µM
[11]
  GI50: 2340 nM
  TGI: 4.67 µM
[12]
  GI50: 862 nM
  TGI: 2350 nM
[13]
  GI50: 1330 nM
  TGI: 4060 nM
[14]
  GI50: 1600 nM
  TGI: 4330 nM
[15]
  GI50: 4270 nM
  TGI: 17.1 µM
[16]
  GI50: 1900 nM
  TGI: 7.07 µM
[17]
  GI50: 3020 nM
  TGI: 15.4 µM
[18]
  GI50: 2490 nM
  TGI: 6.68 µM
[19]
  GI50: 2120 nM
  TGI: 5.05 µM
[20]
  GI50: 372 nM
  TGI: > 100000 nM
[21]
  GI50: 1890 nM
  TGI: 3.82 µM
[22]
  GI50: 636 nM
  TGI: 2240 nM
[23]
  GI50: 1700 nM
  TGI: 3810 nM
[24]
  GI50: 1930 nM
  TGI: 4.58 µM
[25]
  GI50: 1820 nM
  TGI: 6.63 µM
[26]
  GI50: 3240 nM
  TGI: 10.5 µM
[27]
  GI50: 2090 nM
  TGI: 5040 nM
[28]
  GI50: 2380 nM
  TGI: 6.41 µM
[29]
  GI50: 2630 nM
  TGI: 10.3 µM
[30]
  GI50: 2850 nM
  TGI: 9.43 µM
[31]
  GI50: 1940 nM
  TGI: 5.43 µM
[32]
  GI50: 2660 nM
  TGI: 8.76 µM
[33]
  GI50: 3290 nM
  TGI: 22.5 µM
[34]
  GI50: 2000 nM
  TGI: 4570 nM
[35]
  GI50: 2760 nM
  TGI: 12.8 µM
[36]
  GI50: 2420 nM
  TGI: 6.42 µM
[37]
  GI50: 3680 nM
  TGI: 21.6 µM
[38]
  GI50: 1890 nM
  TGI: 4470 nM
[39]
  GI50: 567 nM
  TGI: 2820 nM
[40]
  GI50: 1750 nM
  TGI: 3630 nM
[41]
  GI50: 2460 nM
  TGI: 9.16 µM
[42]
  GI50: 4.6 µM
  TGI: 16.3 µM
[43]
  GI50: 1750 nM
  TGI: 4.24 µM
[44]
  GI50: 6.25 µM
  TGI: 28.1 µM
[45]
  GI50: 2040 nM
  TGI: 4.59 µM
[46]
  GI50: 2140 nM
  TGI: 4.56 µM
[47]
  GI50: 6.53 µM
  TGI: 20.6 µM
[48]
  GI50: 2630 nM
  TGI: 9.56 µM
[49]
  GI50: 2060 nM
  TGI: 5.66 µM
[50]
  GI50: 1360 nM
  TGI: 8.03 µM
[51]
  GI50: 304 nM
  TGI: 2340 nM
[52]
  GI50: 1760 nM
  TGI: 6.29 µM
[53]
  GI50: 2900 nM
  TGI: 17.8 µM
[54]
  GI50: 3840 nM
  TGI: 15.9 µM
[55]
  GI50: 1300 nM
  TGI: 3290 nM
[56]
  GI50: 3510 nM
  TGI: 14 µM
[57]
  GI50: 1980 nM
  TGI: 4470 nM
[58]
  GI50: 1380 nM
  TGI: 2670 nM

## COc1ccc2[nH]c(C(=O)N3CCN(C(=O)OCc4ccc5c(Br)cc(Br)c(O)c5n4)CC3)cc2c1
[1]
  GI50: 270 nM
  TGI: 759 nM
[2]
  GI50: 1580 nM
  TGI: 2.98 µM
[3]
  GI50: 1680 nM
  TGI: 3.59 µM
[4]
  GI50: 170 nM
  TGI: 335 nM
[5]
  GI50: 213 nM
  TGI: 585 nM
[6]
  GI50: 244 nM
  TGI: 749 nM
[7]
  GI50: 238 nM
  TGI: 1.63 µM
[8]
  GI50: 193 nM
  TGI: 0.426 µM
[9]
  GI50: 396 nM
  TGI: 1370 nM
[10]
  GI50: 1370 nM
  TGI: 2.93 µM
[11]
  GI50: 898 nM
  TGI: 2.39 µM
[12]
  GI50: 178 nM
  TGI: 393 nM
[13]
  GI50: 219 nM
  TGI: 596 nM
[14]
  GI50: 318 nM
  TGI: 1140 nM
[15]
  GI50: 1590 nM
  TGI: 3.66 µM
[16]
  GI50: 178 nM
  TGI: 0.86 µM
[17]
  GI50: 1050 nM
  TGI: 4.29 µM
[18]
  GI50: 318 nM
  TGI: 1.03 µM
[19]
  GI50: 368 nM
  TGI: 1.36 µM
[20]
  GI50: 294 nM
  TGI: 978 nM
[21]
  GI50: 1370 nM
  TGI: 2.83 µM
[22]
  GI50: 172 nM
  TGI: 334 nM
[23]
  GI50: 262 nM
  TGI: 753 nM
[24]
  GI50: 1020 nM
  TGI: 2.37 µM
[25]
  GI50: 262 nM
  TGI: 1.18 µM
[26]
  GI50: 388 nM
  TGI: 1.39 µM
[27]
  GI50: 258 nM
  TGI: 695 nM
[28]
  GI50: 298 nM
  TGI: 0.966 µM
[29]
  GI50: 496 nM
  TGI: 1.05 µM
[30]
  GI50: 1480 nM
  TGI: 3.15 µM
[31]
  GI50: 1360 nM
  TGI: 3.14 µM
[32]
  GI50: 206 nM
  TGI: 0.546 µM
[33]
  GI50: 336 nM
  TGI: 1.76 µM
[34]
  GI50: 197 nM
  TGI: 427 nM
[35]
  GI50: 302 nM
  TGI: 0.972 µM
[36]
  GI50: 603 nM
  TGI: 1.98 µM
[37]
  GI50: 277 nM
  TGI: 0.857 µM
[38]
  GI50: 442 nM
  TGI: 1500 nM
[39]
  GI50: 243 nM
  TGI: 809 nM
[40]
  GI50: 208 nM
  TGI: 575 nM
[41]
  GI50: 1200 nM
  TGI: 2.74 µM
[42]
  GI50: 1.61 µM
  TGI: 3.03 µM
[43]
  GI50: 926 nM
  TGI: 2.25 µM
[44]
  GI50: 0.577 µM
  TGI: 1.55 µM
[45]
  GI50: 448 nM
  TGI: 1.51 µM
[46]
  GI50: 620 nM
  TGI: 1.77 µM
[47]
  GI50: 1.87 µM
  TGI: 3.39 µM
[48]
  GI50: 313 nM
  TGI: 1.07 µM
[49]
  GI50: 1460 nM
  TGI: 2.83 µM
[50]
  GI50: 735 nM
  TGI: 2.16 µM
[51]
  GI50: 243 nM
  TGI: 1230 nM
[52]
  GI50: 222 nM
  TGI: 0.507 µM
[53]
  GI50: 1350 nM
  TGI: 4.46 µM
[54]
  GI50: 306 nM
  TGI: 1.01 µM
[55]
  GI50: 1290 nM
  TGI: 2590 nM
[56]
  GI50: 447 nM
  TGI: 1.4 µM
[57]
  GI50: 258 nM
  TGI: 749 nM
[58]
  GI50: 153 nM
  TGI: 323 nM
